The values that follow come from patent US8906825B2, “Herbicidal compositions comprising 4-amino-3-chloro-5-fluoro-6-(4-chloro-2-fluoro-3-methoxyphenyl) pyridine-2-carboxylic acid or a derivative thereof and triazolopyrimidine sulfonamides” (Dow AgroSciences LLC, priority 2012, dated 2014).

Format in all cases: in vivo
Test [1] deals with FIMMI (Fimbristylis miliacea (L.) Vahl, globe fringerush). In words: In-water applied herbicidal mixtures, transplanted paddy rice, greenhouse (Example II). The conditions noted are these: Compound A Benzyl Ester 8 gae/ha.
The test system of test [2] is CYPIR (Cyperus iria L., rice flatsedge). In words: Postemergence foliar-applied herbicidal mixtures, direct seeded rice, greenhouse (Example I).
Test [3] concerns ECHCG (Echinochloa crusgalli (L.) Beauv., barnyardgrass). The test is described as above.

SMILES strings stand for the structures.

Take `COc1c(Cl)ccc(-c2nc(C(=O)OCc3ccccc3)c(Cl)c(N)c2F)c1F` [Compound A Benzyl Ester, benzyl ester of 4-amino-3-chloro-5-fluoro-6-(4-chloro-2-fluoro-3-methoxy-phenyl)pyridine-2-carboxylic acid]: in test [1], the “Visual Weed Control (%) - 21 DAA FIMMI Obs” value was 30%. Besides, the “Visual Weed Control (%) - 20 DAA CYPIR Obs” value turned out to be 15% in test [2] (Compound A Benzyl Ester 4.38 gae/ha), 60% in test [2] (Compound A Benzyl Ester 8.75 gae/ha) and 90% in test [2] (Compound A Benzyl Ester 17.5 gae/ha). Besides, the “Visual Weed Control (%) - 22 DAA CYPIR Obs” value came to 20% in test [2] (Compound A Benzyl Ester 8 gae/ha) and 85% in test [2] (Compound A Benzyl Ester 16 gae/ha).

Consider `COc1cnc(OC)n2nc(NS(=O)(=O)c3c(OCC(F)F)cccc3C(F)(F)F)nc12` [Penoxsulam, 2-(2,2-difluoroethoxy)-N-(5,8-dimethoxy[1,2,4]triazolo[1,5-c]pyrimidin-2-yl)-6-(trifluoromethyl)benzenesulfonamide, reference compound], for which the “Visual Weed Control (%) - 27 DAA ECHCG Obs” value is on record as 0% in test [3] (Penoxsulam 4.38 gai/ha) and 30% in test [3] (Penoxsulam 8.75 gai/ha).
